# Experimental data published in paper PMC8695447, “Novel Small Molecules Capable of Blocking mtRAS-Signaling Pathway” (Frontiers in Oncology, 2021).
# Experiments:
# H358 (KRAS-G12C) = experiment: Anti-proliferation assay on H358; assay type: cell-based; details: Homo sapiens, NCI-H358; 72 h treatment; average with SD (n = 3, duplicate)
# Experimental: (§1) Ba/F3-parental, OCI-AML3, U397 cells were purchased from DSMZ. MDA-MB-231, HCT-116, AsPC-1, H358, HT-29, SW480, and DU-145 cells were obtained from KCLB. MDA-MB-468 cells were obtained from ATCC. All cells were maintained in RPMI with 10% FBS and antibiotics. Cells were grown in a humidified 5% CO2 incubator at 37°C. Ba/F3-parental cells were grown in the presence of 10 ng/ml IL-3. NRAS-G12D or NRAS-G12V transformed Ba/F3 cell lines (Ba/F3-NRAS-G12D, and Ba/F3-NRAS-G12V, respectively) were cultured without IL-3, which were established by the procedure described as previously ([30]).
# (§2) Approximately 3.0 × 10^3 cells/well were seeded in a 96-well cell culture plate. After stabilization, 1/3 serially diluted compound in DMSO was treated to the cell. […] All GI50 values were obtained in duplicate with three independent assays and averages with standard deviation are presented.
# MDA-MB-231 (KRAS-G13D) = experiment: Anti-proliferation assay on MDA-MB-231; assay type: cell-based; details: Homo sapiens, MDA-MB-231; 72 h treatment; average with SD (n = 3, duplicate)
# Experimental: as §1, §2
# AsPC-1 (KRAS-G12D) = experiment: Anti-proliferation assay on AsPC-1; assay type: cell-based; details: Homo sapiens, ASPC1; 72 h treatment; average with SD (n = 3, duplicate)
# Experimental: as §1, §2
# U937 (KRAS, NRAS-wt) = experiment: Anti-proliferation assay on U937; assay type: cell-based; details: Homo sapiens, U-937; 72 h treatment; average with SD (n = 3, duplicate)
# Experimental: as §1, §2
# Ba/F3-NRAS-G12D cells = experiment: Anti-proliferation assay (CellTiter Glo) on Ba/F3-NRAS-G12D; assay type: cell-based; details: Mus musculus, BaF3; 72 h treatment; average with SD (n = 3, duplicate)
# Experimental: as §1, §2
# [1] = tested on: MDA-MB-468 (KRAS, NRAS-wt); experiment: Anti-proliferation assay on MDA-MB-468; assay type: cell-based; details: Homo sapiens, MDA-MB-468; 72 h treatment; average with SD (n = 3, duplicate)
# Experimental: as §1, §2
# Ba/F3-NRAS-G12V cells = experiment: Anti-proliferation assay (CellTiter Glo) on Ba/F3-NRAS-G12V; assay type: cell-based; details: Mus musculus, BaF3; 72 h treatment; average with SD (n = 3, duplicate)
# Experimental: as §1, §2
# DU-145 (KRAS-G12V) = experiment: Anti-proliferation assay on DU-145; assay type: cell-based; details: Homo sapiens, DU-145; 72 h treatment; average with SD (n = 3, duplicate)
# Experimental: as §1, §2
# HT-29 (KRAS-Q61L) = experiment: Anti-proliferation assay on HT-29; assay type: cell-based; details: Homo sapiens, HT-29; 72 h treatment; average with SD (n = 3, duplicate)
# Experimental: as §1, §2
# OCI-AML3 (NRAS-Q61L) = experiment: Anti-proliferation assay on OCI-AML3; assay type: cell-based, human; details: Homo sapiens, OCI-AML-3; 72 h treatment; average with SD (n = 3, duplicate)
# Experimental: as §1, §2
# SW480 (KRAS-G12V) = experiment: Anti-proliferation assay on SW480; assay type: cell-based; details: Homo sapiens, SW480; 72 h treatment; average with SD (n = 3, duplicate)
# Experimental: as §1, §2
# HCT-116 (KRAS-G13D) = experiment: Anti-proliferation assay on HCT-116; assay type: cell-based; details: Homo sapiens, HCT-116; 72 h treatment; average with SD (n = 3, duplicate)
# Experimental: as §1, §2
# Ba/F3-parental cells = experiment: Anti-proliferation assay (CellTiter Glo) on Ba/F3-parental; assay type: cell-based; details: Mus musculus, BaF3; 72 h treatment; with 10 ng/ml IL-3; average with SD (n = 3, duplicate)
# Experimental: as §1, §2
SMILES,GI50 (H358 (KRAS-G12C)),GI50 (MDA-MB-231 (KRAS-G13D)),GI50 (AsPC-1 (KRAS-G12D)),"GI50 (U937 (KRAS, NRAS-wt))",GI50 (Ba/F3-NRAS-G12D cells),GI50 [1],GI50 (Ba/F3-NRAS-G12V cells),GI50 (DU-145 (KRAS-G12V)),GI50 (HT-29 (KRAS-Q61L)),GI50 (OCI-AML3 (NRAS-Q61L)),GI50 (SW480 (KRAS-G12V)),GI50 (HCT-116 (KRAS-G13D)),GI50 (Ba/F3-parental cells)
"Cc1ccc(NC(=O)c2cccc(C(F)(F)F)c2)cc1N1Cc2cnc(Nc3cnn(C)c3)nc2N(C)C1=O [Compound 10, N-(4-Methyl-3-(1-methyl-7-((1-methyl-1H-pyrazol-4-yl)amino)-2-oxo-1,4-dihydropyrimido[4,5-d]pyrimidin-3(2H)-yl)phenyl)-3-(trifluoromethyl)benzamide]",130 ± 9 nM,50 ± 12 nM,105 ± 34 nM,2700 ± 668 nM,193 ± 7 nM,> 50000 nM,280 ± 79 nM,51 ± 46 nM,366 ± 152 nM,59 ± 7 nM,275 ± 29 nM,68 ± 28 nM,630 ± 104 nM
"Cc1ccc(NC(=O)c2cccc(C(F)(F)F)c2)cc1N1Cc2cnc(Nc3ccc(N4CCC(O)CC4)cc3)nc2N(C)C1=O [Compound 2, N-(3-(7-((4-(4-Hydroxypiperidin-1-yl)phenyl)amino)-1-methyl-2-oxo-1,4-dihydropyrimido[4,5-d]pyrimidin-3(2H)-yl)-4-methylphenyl)-3-(trifluoromethyl)benzamide]",201 ± 23 nM,90 nM,257 ± 129 nM,1690 ± 624 nM,116 ± 37 nM,20200 ± 8770 nM,181 ± 42 nM,40 ± 20 nM,143 ± 10 nM,101 ± 22 nM,293 ± 50 nM,15 ± 9 nM,827 ± 142 nM
"CCN1CCC(n2cc(Nc3ncc4c(n3)N(C)C(=O)N(c3cc(NC(=O)c5cccc(C(F)(F)F)c5)ccc3C)C4)cn2)CC1 [Compound 13, N-(3-(7-((1-(1-Ethylpiperidin-4-yl)-1H-pyrazol-4-yl)amino)-1-methyl-2-oxo-1,4-dihydropyrimido[4,5-d]pyrimidin-3(2H)-yl)-4-methylphenyl)-3-(trifluoromethyl)benzamide]",147 ± 31 nM,55 ± 20 nM,186 ± 22 nM,690 ± 35 nM,114 ± 18 nM,16200 ± 6020 nM,130 ± 28 nM,76 ± 26 nM,164 ± 2 nM,36 ± 7 nM,269 ± 61 nM,77 ± 27 nM,889 ± 61 nM
"Cc1ccc(Nc2ncc3c(n2)N(C)C(=O)N(c2cc(NC(=O)c4cccc(C(F)(F)F)c4)ccc2C)C3)c(C)n1 [Compound 6, N-(3-(7-((2,6-Dimethylpyridin-3-yl)amino)-1-methyl-2-oxo-1,4-dihydropyrimido[4,5-d]pyrimidin-3(2H)-yl)-4-methylphenyl)-3-(trifluoromethyl)benzamide]",2060 ± 1130 nM,646 ± 68 nM,3170 ± 244 nM,2870 ± 142 nM,569 ± 28 nM,> 50000 nM,428 ± 161 nM,1170 ± 124 nM,3250 ± 176 nM,374 ± 24 nM,2050 ± 51 nM,1530 ± 390 nM,1470 ± 317 nM
"COCCn1cc(Nc2ncc3c(n2)N(C)C(=O)N(c2cc(NC(=O)c4cccc(C(F)(F)F)c4)ccc2C)C3)cn1 [Compound 12, N-(3-(7-((1-(2-Methoxyethyl)-1H-pyrazol-4-yl)amino)-1-methyl-2-oxo-1,4-dihydropyrimido[4,5-d]pyrimidin-3(2H)-yl)-4-methylphenyl)-3-(trifluoromethyl)benzamide]",106 ± 12 nM,71 ± 18 nM,275 ± 47 nM,934 ± 57 nM,122 ± 1 nM,> 50000 nM,216 ± 5 nM,34 ± 25 nM,131 ± 4 nM,46 ± 16 nM,532 ± 150 nM,66 ± 55 nM,1160 ± 424 nM

# Further lines, with some results ahead:
GI50 (H358 (KRAS-G12C)),GI50 (MDA-MB-231 (KRAS-G13D)),GI50 (AsPC-1 (KRAS-G12D)),"GI50 (U937 (KRAS, NRAS-wt))",GI50 (Ba/F3-NRAS-G12D cells),GI50 [1],GI50 (Ba/F3-NRAS-G12V cells),GI50 (DU-145 (KRAS-G12V)),GI50 (HT-29 (KRAS-Q61L)),GI50 (OCI-AML3 (NRAS-Q61L)),GI50 (SW480 (KRAS-G12V)),GI50 (HCT-116 (KRAS-G13D)),SMILES,GI50 (Ba/F3-parental cells)
1380 ± 96 nM,1120 ± 290 nM,2020 ± 56 nM,> 50000 nM,586 ± 91 nM,> 50000 nM,–,1040 ± 400 nM,1310 ± 54 nM,611 ± 65 nM,4510 ± 873 nM,1240 ± 554 nM,"Cc1ccc(NC(=O)c2cccc(C(F)(F)F)c2)cc1N1Cc2cnc(Nc3ccc(N4CCCCC4)cc3)nc2N(C)C1=O [Compound 1, N-(4-Methyl-3-(1-methyl-2-oxo-7-((4-(piperidin-1-yl)phenyl)amino)-1,4-dihydropyrimido[4,5-d]pyrimidin-3(2H)-yl)phenyl)-3-(trifluoromethyl)benzamide]",> 50000 nM
240 ± 42 nM,108 ± 26 nM,318 ± 10 nM,7000 ± 1120 nM,185 ± 15 nM,> 50000 nM,259 ± 126 nM,89 ± 47 nM,355 ± 54 nM,103 ± 1 nM,286 ± 39 nM,45 ± 16 nM,"Cc1ccc(NC(=O)c2cccc(C(F)(F)F)c2)cc1N1Cc2cnc(Nc3ccn(C)n3)nc2N(C)C1=O [Compound 11, N-(4-Methyl-3-(1-methyl-7-((1-methyl-1H-pyrazol-3-yl)amino)-2-oxo-1,4-dihydropyrimido[4,5-d]pyrimidin-3(2H)-yl)phenyl)-3-(trifluoromethyl)benzamid]",1160 ± 330 nM
5140 ± 368 nM,1110 ± 127 nM,4160 ± 2170 nM,4720 ± 488 nM,457 ± 141 nM,> 50000 nM,351 ± 34 nM,1880 ± 125 nM,3120 ± 460 nM,538 ± 162 nM,6440 ± 264 nM,2540 ± 1810 nM,"Cc1ccc(NC(=O)c2cccc(C(F)(F)F)c2)cc1N1Cc2cnc(NCCCN3CCOCC3)nc2N(C)C1=O [Compound 5, N-(4-Methyl-3-(1-methyl-7-((3-morpholinopropyl)amino)-2-oxo-1,4-dihydropyrimido[4,5-d]pyrimidin-3(2H)-yl)phenyl)-3-(trifluoromethyl)benzamide]",5730 ± 148 nM
236 ± 29 nM,83 ± 22 nM,135 ± 18 nM,1040 ± 225 nM,230 ± 129 nM,26100 ± 7900 nM,213 ± 53 nM,32 ± 14 nM,126 ± 2 nM,44 ± 14 nM,163 nM,25 ± 10 nM,"CCN1CCN(c2ccc(Nc3ncc4c(n3)N(C)C(=O)N(c3cc(NC(=O)c5cccc(C(F)(F)F)c5)ccc3C)C4)cc2)CC1 [Compound 4, N-(3-(7-((4-(4-Ethylpiperazin-1-yl)phenyl)amino)-1-methyl-2-oxo-1,4-dihydropyrimido[4,5-d]pyrimidin-3(2H)-yl)-4-methylphenyl)-3-(trifluoromethyl)benzamide]",857 ± 108 nM
871 ± 141 nM,620 ± 153 nM,1680 ± 589 nM,17400 ± 4220 nM,588 ± 72 nM,> 50000 nM,429 ± 80 nM,388 ± 45 nM,733 ± 1 nM,606 ± 68 nM,1329 ± 5 nM,480 ± 275 nM,"COc1cc(N2CCOCC2)ccc1Nc1ncc2c(n1)N(C)C(=O)N(c1cc(NC(=O)c3cccc(C(F)(F)F)c3)ccc1C)C2 [Compound 7, N-(3-(7-((2-Methoxy-4-morpholinophenyl)amino)-1-methyl-2-oxo-1,4-dihydropyrimido[4,5-d]pyrimidin-3(2H)-yl)-4-methylphenyl)-3-(trifluoromethyl)benzamide]",3780 ± 1890 nM
265 ± 4 nM,49 ± 12 nM,136 ± 11 nM,2220 ± 163 nM,120 ± 39 nM,> 50000 nM,134 ± 45 nM,30 ± 8 nM,227 ± 12 nM,80 ± 16 nM,382 ± 52 nM,18 ± 6 nM,"Cc1ccc(NC(=O)c2cccc(C(F)(F)F)c2)cc1N1Cc2cnc(Nc3ccc(N4CCOCC4)cc3)nc2N(C)C1=O [Compound 3, N-(4-Methyl-3-(1-methyl-7-((4-morpholinophenyl)amino)-2-oxo-1,4-dihydropyrimido[4,5-d]pyrimidin-3(2H)-yl)phenyl)-3-(trifluoromethyl)benzamide]",1060 ± 55 nM
